Measurements: US10781224B2, “Bis(oxymethyl)phosphinic acid and biogenic metal salts thereof as regulators of plant growth and development” (priority 2016, dated 2020)

Columns and labels:
[1] = system: winter wheat (Vershin variety); assay: Winter wheat seed treatment with BHMPA salts: germination energy and germination rate; assay type: in vivo
Summary of the method: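 Corn, winter wheat and rice seeds (50 per dish, on filter paper) were soaked for 1 h in BHMPA or its metal salts at 1·10^−6-1·10^−12%, with water as control. Germination energy was read on day 4 and germination rate on day 8 for wheat and day 7 for rice and corn, following GOST 12038-84, as the mean of four replicates.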

[2] = system: rice (Diamant variety); assay: Rice seed treatment with BHMPA salts: germinating power; assay type: in vivo
Summary of the method: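 Seeds (50 per Petri dish on two layers of filter paper) soaked 1 h in BHMPA or its Ca, Mg, Na, Co, Mn, Cu or Zn salts at 1·10^−6-1·10^−12%, with water controls. Germination energy read on day 4, germination on day 8 (wheat) or day 7 (rice, corn), as % means of four replicates. Germinating power taken as root and sprout length plus wet and dry mass per 100 seedlings.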

[3] = winter wheat Vershin, 1·10^−6% solution
[4] = winter wheat Vershin, 1·10^−7% solution
[5] = winter wheat Vershin, 1·10^−8% solution
[6] = winter wheat Vershin, 1·10^−9% solution
[7] = winter wheat Vershin, 1·10^−10% solution
[8] = winter wheat Vershin, 1·10^−11% solution
[9] = winter wheat Vershin, 1·10^−12% solution
[10] = winter wheat, comparative study vs Melaphen, 1·10^−11% solution
[11] = rice seed treatment, comparison with Melaphen (Table XXXIII), solution 1 · 10^−10%
[12] = rice seeds, solution concentration 1 · 10^−6%
[13] = rice seeds, solution concentration 1 · 10^−7%
[14] = rice seeds, solution concentration 1 · 10^−8%
[15] = rice seeds, solution concentration 1 · 10^−9%
[16] = rice seeds, solution concentration 1 · 10^−10%
[17] = rice seeds, solution concentration 1 · 10^−11%
[18] = rice seeds, solution concentration 1 · 10^−12%
[19] = rice, vs control, 1·10^−10% solution

## O=P([O-])(CO)CO.O=P([O-])(CO)CO.[Mg+2] [Mg-salt, Magnesium BHMPA Salt]
[1]; [3]
  Germination energy: 85.0%
  Germination rate: 89.3%
[1]; [4]
  Germination energy: 88.4%
  Germination rate: 92.0%
[1]; [5]
  Germination energy: 88.8%
  Germination rate: 92.0%
[1]; [6]
  Germination energy: 89.3%
  Germination rate: 93.0%
[1]; [7]
  Germination energy: 89.9%
  Germination rate: 93.3%
[1]; [8]
  Germination energy: 93.1%
  Germination rate: 96.0%
[1]; [9]
  Germination energy: 90.0%
  Germination rate: 93.3%
[1]; [10]
  Germination energy: 93.3%
  Germination rate: 96.7%
[2]; rice
  optimum concentration for treating rice seeds before sowing: 1·10^−10%
[2]; [11]
  Length, root: 7.2 cm
  Length, root, + % to control: 50%
  Length, sprout: 4.6 cm
  Length, sprout, + % to control: 77%
  Mass, dry, root: 0.26 g/100 plantlings
  Mass, dry, root, + % to control: 24%
  Mass, dry, sprout: 0.30 g/100 plantlings
  Mass, dry, sprout, + % to control: 20%
  Mass, wet, root: 1.39 g/100 plantlings
  Mass, wet, root, + % to control: 42%
  Mass, wet, sprout: 2.39 g/100 plantlings
  Mass, wet, sprout, + % to control: 58%
[2]; [12]
  Length, root: 6.0 cm
  Length, root, + % to control: 13%
  Length, sprout: 2.8 cm
  Length, sprout, + % to control: 4%
  Mass, dry, root: 0.23 g/100 plantlings
  Mass, dry, root, + % to control: 4.5%
  Mass, dry, sprout: 0.35 g/100 plantlings
  Mass, dry, sprout, + % to control: 21%
  Mass, wet, root: 1.17 g/100 plantlings
  Mass, wet, root, + % to control: 18%
  Mass, wet, sprout: 1.96 g/100 plantlings
  Mass, wet, sprout, + % to control: 10%
[2]; [13]
  Length, root: 6.4 cm
  Length, root, + % to control: 21%
  Length, sprout: 2.9 cm
  Length, sprout, + % to control: 7%
  Mass, dry, root: 0.25 g/100 plantlings
  Mass, dry, root, + % to control: 14%
  Mass, dry, sprout: 0.40 g/100 plantlings
  Mass, dry, sprout, + % to control: 40%
  Mass, wet, root: 1.26 g/100 plantlings
  Mass, wet, root, + % to control: 27%
  Mass, wet, sprout: 2.21 g/100 plantlings
  Mass, wet, sprout, + % to control: 24%
[2]; [14]
  Length, root: 6.6 cm
  Length, root, + % to control: 24.5%
  Length, sprout: 3.0 cm
  Length, sprout, + % to control: 11%
  Mass, dry, root: 0.26 g/100 plantlings
  Mass, dry, root, + % to control: 18%
  Mass, dry, sprout: 0.43 g/100 plantlings
  Mass, dry, sprout, + % to control: 48%
  Mass, wet, root: 1.35 g/100 plantlings
  Mass, wet, root, + % to control: 36%
  Mass, wet, sprout: 2.31 g/100 plantlings
  Mass, wet, sprout, + % to control: 30%
[2]; [15]
  Length, root: 7.0 cm
  Length, root, + % to control: 32%
  Length, sprout: 3.2 cm
  Length, sprout, + % to control: 18.5%
  Mass, dry, root: 0.29 g/100 plantlings
  Mass, dry, root, + % to control: 32%
  Mass, dry, sprout: 0.47 g/100 plantlings
  Mass, dry, sprout, + % to control: 62%
  Mass, wet, root: 1.46 g/100 plantlings
  Mass, wet, root, + % to control: 46%
  Mass, wet, sprout: 2.37 g/100 plantlings
  Mass, wet, sprout, + % to control: 33%
[2]; [16]
  Length, root: 7.2 cm
  Length, root, + % to control: 36%
  Length, sprout: 3.8 cm
  Length, sprout, + % to control: 41%
  Mass, dry, root: 0.35 g/100 plantlings
  Mass, dry, root, + % to control: 59%
  Mass, dry, sprout: 0.49 g/100 plantlings
  Mass, dry, sprout, + % to control: 69%
  Mass, wet, root: 1.62 g/100 plantlings
  Mass, wet, root, + % to control: 63%
  Mass, wet, sprout: 2.52 g/100 plantlings
  Mass, wet, sprout, + % to control: 41.5%
[2]; [17]
  Length, root: 6.7 cm
  Length, root, + % to control: 26%
  Length, sprout: 3.1 cm
  Length, sprout, + % to control: 15%
  Mass, dry, root: 0.27 g/100 plantlings
  Mass, dry, root, + % to control: 23%
  Mass, dry, sprout: 0.44 g/100 plantlings
  Mass, dry, sprout, + % to control: 52%
  Mass, wet, root: 1.44 g/100 plantlings
  Mass, wet, root, + % to control: 45%
  Mass, wet, sprout: 2.34 g/100 plantlings
  Mass, wet, sprout, + % to control: 31%
[2]; [18]
  Length, root: 6.3 cm
  Length, root, + % to control: 19%
  Length, sprout: 2.9 cm
  Length, sprout, + % to control: 7%
  Mass, dry, root: 0.23 g/100 plantlings
  Mass, dry, root, + % to control: 4.5%
  Mass, dry, sprout: 0.39 g/100 plantlings
  Mass, dry, sprout, + % to control: 34%
  Mass, wet, root: 1.31 g/100 plantlings
  Mass, wet, root, + % to control: 32%
  Mass, wet, sprout: 2.18 g/100 plantlings
  Mass, wet, sprout, + % to control: 22%
[2]; [19]
  dry mass of the roots increased by: 59%
  dry mass of the sprouts increased by: 69%
  length of the root increased by: 36%
  length of the sprout increased by: 41%
  wet mass of the roots increased by: 63%
  wet mass of the sprouts increased by: 41.5%
